Measured values reported in patent US9828375B2, “4-position substituted pyrazolopyrimidine derivative, and use thereof in drug preparation” (Guangxi Wuzhou Pharmaceuticals (Group) Co., Ltd., priority 2012, dated 2017).

Molecular target: T1, FLT3 (Homo sapiens, UniProt P36888)
T1 sequence (P36888 27-993): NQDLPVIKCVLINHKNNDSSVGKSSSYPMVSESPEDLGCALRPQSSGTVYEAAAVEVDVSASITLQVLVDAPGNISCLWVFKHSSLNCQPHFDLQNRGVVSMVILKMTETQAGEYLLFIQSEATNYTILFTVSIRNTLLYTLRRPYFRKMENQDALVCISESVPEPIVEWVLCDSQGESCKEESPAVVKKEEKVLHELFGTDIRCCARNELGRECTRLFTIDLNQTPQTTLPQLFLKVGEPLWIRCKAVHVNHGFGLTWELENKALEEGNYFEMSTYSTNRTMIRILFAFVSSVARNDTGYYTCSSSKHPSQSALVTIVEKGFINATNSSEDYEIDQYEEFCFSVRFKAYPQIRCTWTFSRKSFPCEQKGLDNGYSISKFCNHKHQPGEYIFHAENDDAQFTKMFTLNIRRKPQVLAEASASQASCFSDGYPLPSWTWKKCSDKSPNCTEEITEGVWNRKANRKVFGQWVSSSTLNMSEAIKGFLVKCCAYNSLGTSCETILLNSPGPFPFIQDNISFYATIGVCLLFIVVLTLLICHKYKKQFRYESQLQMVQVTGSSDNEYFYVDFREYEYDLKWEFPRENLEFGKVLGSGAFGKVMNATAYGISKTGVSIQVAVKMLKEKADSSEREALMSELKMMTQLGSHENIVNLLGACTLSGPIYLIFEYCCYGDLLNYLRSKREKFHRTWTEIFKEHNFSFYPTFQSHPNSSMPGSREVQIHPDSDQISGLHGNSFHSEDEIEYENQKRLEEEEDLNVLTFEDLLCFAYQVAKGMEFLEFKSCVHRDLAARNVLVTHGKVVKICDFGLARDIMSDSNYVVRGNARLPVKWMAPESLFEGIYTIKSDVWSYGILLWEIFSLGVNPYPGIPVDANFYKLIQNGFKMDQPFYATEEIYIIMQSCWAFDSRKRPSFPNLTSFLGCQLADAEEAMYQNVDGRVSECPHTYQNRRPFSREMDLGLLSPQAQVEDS
Assay: Kinase inhibition activity test, isotope labeling (γ-33P-ATP): FLT3
Format: biochemical
Details: for IC50: ATP 200 μM, read-out: FLT3 IC50 value (inhibitory activity value); for Activity inhibition rate Flt3 (h) / inhibition at 10 µM: test compound at a concentration of 10 μM; for inhibition at 10 µM: read-out: Activity inhibition rate Flt3 (h)
Description: The purpose of this experiment was to test the inhibitory activity of the compound of the invention for in vitro kinase with the isotope labeling method (the γ phosphate group on ATP was labeled). In this experiment, the in vitro activity inhibition of such kinases as FLT3, VEGFR2, FLT1, FLT4, RET, c-RAF, B-RAF, c-KIT, PDGFα, PDGFβ, FGFR2, FGFR1, EphA2, EphB2, SRC, ABL, ALK and Met was tested respectively. Staurosporine was reference molecule (or referred to as positive control). The kinase inhibition activity of the test compound was expressed by half-inhibitory concentration (IC50) or the kinase activity inhibition rate of the test compound at a concentration of 10 μM. The IC50 value could be obtained by calculating the kinase activity inhibition rate of the test compound at different concentrations.
20 mM 3-(N-morpholinyl)propanesulfonic acid (MOPS); 1 mM ethylenediaminetetraacetic acid (EDTA), 0.01% Brij 35 (Brij-35), 5% glycerol, 0.1% mercaptoethanol, 1 mg/mL bovine serum albumin (BSA), 10 mM manganous dichloride solution (MnCl2), 0.1 mg/mL glutamic acid/tyrosine (4:1) polypeptide (poly(Glu, Tyr)4:1), 50 μM EAIYAAPFAKKK (substrate of FLT3), 0.33 mg/mL myelin basic protein (substrate of VEGFR2), 250 μM KKKSPGEYVNIEFG (substrate of FLT1(h)), 500 μM GGEEEEYFELVKKKK (substrate of FLT4(h)), 250 μM KKKSPGEYVNIEFG (substrate of RET), 0.66 mg/mL myelin basic protein (substrate of C-RAF), 250 μM GGMEDIYFEFMGGKKK (substrate of c-Kit), 250 μM GGMEDIYFEFMGGKKK (substrate of PDGFα), 250 μM KKKSPGEYVNIEFG (substrate of FGFR1), […] GGEEEEYFELVKKKK (substrate of SRC), 50 μM EAIYAAPFAKKK (substrate of ABL), 250 μM KKKSPGEYVNIEFG (substrate of ALK), 250 μM KKKSPGEYVNIEFG (substrate of Met(h)), 10 mM magnesium acetate and γ-^33 P-ATP solution, stop buffer (3% phosphate buffer), washing buffer (75 mM phosphate solution), methanol, Filtermat A membrane, FLT3, VEGFR2, FLT3, VEGFR2, FLT1, FLT4, RET, c-RAF, B-RAF, c-KIT, PDGFRα, PDGFRβ, FGFR2, FGFR1, EphA2, EphB2, SRC, ABL, ALK, Met and other kinases, and the test compounds.
Buffers (8 mM MOPS with pH value of 7.0, 0.2 mM EDTA and 10 mM MnCl2), (5-10 mU) kinases to be tested (FLT3, VEGFR2, FLT1, FLT4, RET, c-RAF, B-RAF, c-KIT, PDGFRα, PDGFRβ, FGFR2, FGFR1, EphA2, EphB2, SRC, ABL, ALK and Met), substrates of kinases to be tested (refer to experimental materials), 10 mM magnesium acetate and γ-^33 P-ATP solution, and test compounds at different concentrations were added to a reaction tube orderly. […] Reaction was terminated with 5 μL 3% phosphate buffer finally, and 10 μL reaction solution was titrated to the Filtermat A membrane; solution was washed for 3 times with 75 mM phosphate solution with each time lasting 5 minutes, and then washed once with methanol. Finally, the Filtermat A membrane was dried, and scintillation counting was performed on the membrane, with scintillation count reflecting the phosphorylation degree of the substrates, so that the activity inhibition of kinase could be characterized.

Row | Compound | IC50 | Activity inhibition rate Flt3 (h) | inhibition at 10 µM | Activity inhibition rate Flt3 (h) (10 µM)
1 | 1-(4-((1H-pyrazolopyrimidine-4-yl)oxy)-3-fluorophenyl)-3-(3-trifluoromethoxy)phenyl)urea [4a-8] | 38 nM | 100% |  | 
2 | 1-(4-((1H-pyrazolopyrimidine-4-yl)oxy)phenyl)-3-(methylcyclohexyl)urea [4a-20] |  | 66% |  | 
3 | O=C(Nc1ccc(Oc2ncnc3[nH]ncc23)cc1)Nc1ccc(C(F)(F)F)cc1 [4a-1] | 27 nM |  | 100% | 
4 | O=C(Nc1ccc(Oc2ncnc3[nH]ncc23)cc1)Nc1ccc(Cl)c(C(F)(F)F)c1 [4a-2] | 39 nM | 100% |  | 
5 | O=C(Nc1ccc(Oc2ncnc3[nH]ncc23)cc1)Nc1cccc(C(F)(F)F)c1 [4a-6] | 9 nM |  | 100% | 
6 | CC(C)c1cccc(NC(=O)Nc2ccc(Oc3ncnc4[nH]ncc34)c(F)c2)c1 [4a-7, 1-(4-((1H-pyrazolopyrimidine-4-yl)oxy)-3-fluorophenyl)-3-(3-isopropylphenyl)urea] | 36 nM | 100% |  | 
7 | O=C(Nc1ccc(C(F)(F)F)cc1)Nc1ccc(Oc2ncnc3[nH]ncc23)c(F)c1 [4a-9, 1-(4-((1H-pyrazolopyrimidine-4-yl)oxy)-3-fluorophenyl)-3-(4-(trifluoromethyl)phenyl)urea] | 18 nM | 100% |  | 
8 | O=C(Nc1ccc(Oc2ncnc3[nH]ncc23)c(F)c1)Nc1ccc(Cl)c(C(F)(F)F)c1 [4a-10, 1-(4-((1H-pyrazolopyrimidine-4-yl)oxy)-3-fluorophenyl)-3-(4-chloro-3-(trifluoromethyl)phenyl)urea] | 25 nM | 100% |  | 
9 | O=C(Nc1ccc(Oc2ncnc3[nH]ncc23)cc1)Nc1cc(C(F)(F)F)cc(C(F)(F)F)c1 [4a-12, 1-(4-((1H-pyrazolopyrimidine-4-yl)oxy)phenyl)-3-(3,5-bis(trifluoromethyl)phenyl)urea] | 61 nM | 100% |  | 
10 | O=C(Nc1ccc(Oc2ncnc3[nH]ncc23)cc1)Nc1ccc(C(F)(F)F)cc1Cl [4a-13] | 24 nM | 100% |  | 
11 | O=C(Nc1ccccc1)Nc1ccc(Oc2ncnc3[nH]ncc23)cc1 [4a-15, 1-(4-((1H-pyrazolopyrimidine-4-yl)oxy)phenyl)-3-phenylurea] | 89 nM | 100% |  | 
12 | O=C(Nc1ccc(Oc2ncnc3[nH]ncc23)cc1)Nc1ccc(N2CCOCC2)cc1 [4a-16, 1-(4-((1H-pyrazolopyrimidine-4-yl)oxy)phenyl)-3-(4-morpholinylphenyl)urea] |  |  | 76% | 
13 | C[C@H](NC(=O)Nc1ccc(Oc2ncnc3[nH]ncc23)cc1)c1ccccc1 [4a-18, (S)-1-(4-((1H-pyrazolopyrimidine-4-yl)oxy)phenyl)-3-(1-phenethyl)urea] |  | 81% |  | 
14 | C[C@@H](NC(=O)Nc1ccc(Oc2ncnc3[nH]ncc23)cc1)c1ccccc1 [4a-19, (R)-1-(4-((1H-pyrazolopyrimidine-4-yl)oxy)phenyl)-3-(1-phenethyl)urea] |  | 73% |  | 
15 | CC(C)(C)c1cc(NC(=O)Nc2ccc(Oc3ncnc4[nH]ncc34)cc2)n(-c2ccccc2)n1 [4a-24] | 17 nM | 100% |  | 
16 | CC(C)(C)c1cc(NC(=O)Nc2ccc(Oc3ncnc4[nH]ncc34)cc2)on1 [4a-25] | 16 nM | 100% |  | 
17 | CC(C)(C)c1cc(NC(=O)Nc2ccc(Oc3ncnc4[nH]ncc34)cc2)no1 [4a-26] | 8 nM |  | 100% | 
18 | O=C(Nc1ccc(Oc2ncnc3[nH]ncc23)cc1)Nc1cc(C(F)(F)F)on1 [4a-28] |  |  | 100% | 
19 | CC(C)(C)c1cc(NC(=O)Nc2ccc(Oc3ncnc4[nH]ncc34)c(F)c2)no1 [4a-31] | 5 nM | 100% |  | 
20 | O=C(Nc1cccc(Nc2ncnc3[nH]ncc23)c1)Nc1ccc(F)c(Cl)c1 [4b-1] |  |  | 30% | 
21 | C[C@@H](NC(=O)Nc1ccc(Nc2ncnc3[nH]ncc23)cc1)c1ccccc1 [4b-2, (R)-1-(4-(1H-pyrazolopyrimidine-4-amido)phenyl)-3-(1-phenethyl)urea] |  |  |  | 0%
22 | COc1cccc(NC(=O)Nc2ccc(Nc3ncnc4[nH]ncc34)cc2)c1 [4b-3] |  |  | 72% | 
23 | C[C@H](NC(=O)Nc1ccc(Nc2ncnc3[nH]ncc23)cc1)c1ccccc1 [4b-4] |  |  |  | 59%
24 | O=C(Nc1ccc(NC(=O)N2C=NC=C3NNC=C32)cc1)Nc1ccc(Cl)c(C(F)(F)F)c1 [4b-5, 1-(4-(1H-pyrazolopyrimidine-4-amido)phenyl)-3-(4-chloro-3-(trifluoromethyl)phenyl)urea] |  |  | 95% | 
25 | COc1ccc(NC(=O)Nc2ccc(NC(=O)N3C=NC=C4NNC=C43)cc2)cc1 [4b-6, 1-(4-(1H-pyrazolopyrimidine-4-amido)phenyl)-3-(4-methoxyphenyl)urea] |  |  | 81% | 
26 | Cc1cc(C)c(NC(=O)Nc2ccc(NC(=O)N3C=NC=C4NNC=C43)cc2)c(C)c1 [4b-7, 1-(4-(1H-pyrazolopyrimidine-4-amido)phenyl)-3-(2,4,6-trimethylphenyl)urea] |  |  | 91% | 
27 | O=C(Nc1ccc(Sc2ncnc3[nH]ncc23)cc1)Nc1ccc(C(F)(F)F)cc1 [4c-1] |  |  | > 90% | 
28 | O=C(Nc1ccc(Sc2ncnc3[nH]ncc23)cc1)Nc1cccc(C(F)(F)F)c1 [4c-2] |  | >90% |  | 
29 | CC(C)(C)c1cc(NC(=O)Nc2ccc(Sc3ncnc4[nH]ncc34)cc2)no1 [4c-3, 1-(4-(1H-pyrazolopyrimidine-4-sulfydryl)phenyl)-3-(5-tert-butylisoxazol-3-yl)urea] |  | >90% |  | 
30 | CC(C)n1ncc2c(Oc3ccc(NC(=O)Nc4cc(C(C)(C)C)on4)cc3)ncnc21 [5a-4, 1-(5-tert-butylisoxazol-3-yl)-3-(4-(1-isopropyl-(1H-pyrazolopyrimidine-4-yl)oxy)phenyl)urea] |  |  | > 90% | 
